Data from patent US7118895B2, “Process for producing aglycon by using diglycosidase and flavor-improved food containing the aglycon and converting agent to be used in the process” (Amano Enzyme Inc., priority 2000, dated 2006).

Tested on: Crude diglycosidase
Test: Examination of pH in the conversion into isoflavone aglycons by diglycosidase using soybean materials
Type: biochemical, Penicillium multicolor IAM7153
Details: for Decomposition efficiency of glycitin family in roasted soy flour / Decomposition efficiency of glycitin family in soymilk: 55° C.
Method in brief: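 HPLC detection of isoflavone glycosides and aglycons after ethanol quench at 0, 1, 3 and 6 h. Reactions ran at 55° C over pH 2–11, with crude diglycosidase (enzyme solution at 1.88 AU/mL) added to suspended roasted soy flour, soymilk, defatted soybean or concentrated soy protein.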

[1] = pH6.6, heat treatment of enzyme: no, reaction time 0 h
[2] = pH6.6, heat treatment of enzyme: no, reaction time 1 h
[3] = pH6.6, heat treatment of enzyme: no, reaction time 3 h
[4] = pH6.6, heat treatment of enzyme: no, reaction time 6 h
[5] = pH6.6, heat treatment of enzyme: yes, reaction time 6 h

COc1cc2c(=O)c(-c3ccc(O)cc3)coc2cc1O[C@@H]1O[C@H](CO)[C@@H](O)[C@H](O)[C@H]1O [glycitin]
Decomposition efficiency of glycitin family in concentrated soybean protein (pH1.6, heat treatment of enzyme: no, reaction time 0 h): 52.3% | Decomposition efficiency of glycitin family in concentrated soybean protein (pH1.6, heat treatment of enzyme: no, reaction time 1 h): 52.9% | Decomposition efficiency of glycitin family in concentrated soybean protein (pH1.6, heat treatment of enzyme: no, reaction time 3 h): 54.3% | Decomposition efficiency of glycitin family in concentrated soybean protein (pH1.6, heat treatment of enzyme: no, reaction time 6 h): 56.1% | Decomposition efficiency of glycitin family in concentrated soybean protein (pH1.6, heat treatment of enzyme: yes, reaction time 6 h): 57.9% | Decomposition efficiency of glycitin family in roasted soy flour (pH2, heat treatment of enzyme no, reaction time 0 h): 56.8 | Decomposition efficiency of glycitin family in roasted soy flour (pH2, heat treatment of enzyme no, reaction time 1 h): 56.6 | Decomposition efficiency of glycitin family in roasted soy flour (pH2, heat treatment of enzyme no, reaction time 3 h): 56.3 | Decomposition efficiency of glycitin family in roasted soy flour (pH2, heat treatment of enzyme no, reaction time 6 h): 54.4 | Decomposition efficiency of glycitin family in roasted soy flour (pH2, heat treatment of enzyme yes, reaction time 6 h): 54.4 | Decomposition efficiency of glycitin family in soymilk (pH2.3, heat treatment of enzyme no, reaction time 0 h): 50.2 | Decomposition efficiency of glycitin family in soymilk (pH2.3, heat treatment of enzyme no, reaction time 1 h): not detected | Decomposition efficiency of glycitin family in soymilk (pH2.3, heat treatment of enzyme no, reaction time 3 h): not detected | Decomposition efficiency of glycitin family in soymilk (pH2.3, heat treatment of enzyme no, reaction time 6 h): not detected | Decomposition efficiency of glycitin family in soymilk (pH2.3, heat treatment of enzyme yes, reaction time 6 h): 51.7 | Decomposition efficiency of glycitin family in defatted soybean (pH2.6, heat treatment of enzyme: no, reaction time 0 h): not detected | Decomposition efficiency of glycitin family in defatted soybean (pH2.6, heat treatment of enzyme: no, reaction time 1 h): not detected | Decomposition efficiency of glycitin family in defatted soybean (pH2.6, heat treatment of enzyme: no, reaction time 3 h): not detected | Decomposition efficiency of glycitin family in defatted soybean (pH2.6, heat treatment of enzyme: no, reaction time 6 h): not detected | Decomposition efficiency of glycitin family in defatted soybean (pH2.6, heat treatment of enzyme: yes, reaction time 6 h): not detected | Decomposition efficiency of glycitin family in concentrated soybean protein (pH2.7, heat treatment of enzyme: no, reaction time 0 h): 52.3% | Decomposition efficiency of glycitin family in concentrated soybean protein (pH2.7, heat treatment of enzyme: no, reaction time 1 h): 38.0% | Decomposition efficiency of glycitin family in concentrated soybean protein (pH2.7, heat treatment of enzyme: no, reaction time 3 h): 37.2% | Decomposition efficiency of glycitin family in concentrated soybean protein (pH2.7, heat treatment of enzyme: no, reaction time 6 h): 33.7% | Decomposition efficiency of glycitin family in concentrated soybean protein (pH2.7, heat treatment of enzyme: yes, reaction time 6 h): 52.7% | Decomposition efficiency of glycitin family in roasted soy flour (pH3, heat treatment of enzyme no, reaction time 0 h): 56.8 | Decomposition efficiency of glycitin family in roasted soy flour (pH3, heat treatment of enzyme no, reaction time 1 h): not detected | Decomposition efficiency of glycitin family in roasted soy flour (pH3, heat treatment of enzyme no, reaction time 3 h): not detected | Decomposition efficiency of glycitin family in roasted soy flour (pH3, heat treatment of enzyme no, reaction time 6 h): not detected | Decomposition efficiency of glycitin family in roasted soy flour (pH3, heat treatment of enzyme yes, reaction time 6 h): 55.1 | Decomposition efficiency of glycitin family in defatted soybean (pH3.4, heat treatment of enzyme: no, reaction time 0 h): not detected | Decomposition efficiency of glycitin family in defatted soybean (pH3.4, heat treatment of enzyme: no, reaction time 1 h): not detected | Decomposition efficiency of glycitin family in defatted soybean (pH3.4, heat treatment of enzyme: no, reaction time 3 h): not detected | Decomposition efficiency of glycitin family in defatted soybean (pH3.4, heat treatment of enzyme: no, reaction time 6 h): not detected | Decomposition efficiency of glycitin family in defatted soybean (pH3.4, heat treatment of enzyme: yes, reaction time 6 h): not detected | Decomposition efficiency of glycitin family in soymilk (pH3.5, heat treatment of enzyme no, reaction time 0 h): 50.2 | Decomposition efficiency of glycitin family in soymilk (pH3.5, heat treatment of enzyme no, reaction time 1 h): not detected | Decomposition efficiency of glycitin family in soymilk (pH3.5, heat treatment of enzyme no, reaction time 3 h): not detected | Decomposition efficiency of glycitin family in soymilk (pH3.5, heat treatment of enzyme no, reaction time 6 h): not detected | Decomposition efficiency of glycitin family in soymilk (pH3.5, heat treatment of enzyme yes, reaction time 6 h): 54.2 | Decomposition efficiency of glycitin family in concentrated soybean protein (pH3.7, heat treatment of enzyme: no, reaction time 0 h): 52.4% | Decomposition efficiency of glycitin family in concentrated soybean protein (pH3.7, heat treatment of enzyme: no, reaction time 1 h): not detected | Decomposition efficiency of glycitin family in concentrated soybean protein (pH3.7, heat treatment of enzyme: no, reaction time 3 h): not detected | Decomposition efficiency of glycitin family in concentrated soybean protein (pH3.7, heat treatment of enzyme: no, reaction time 6 h): not detected | Decomposition efficiency of glycitin family in concentrated soybean protein (pH3.7, heat treatment of enzyme: yes, reaction time 6 h): 52.4% | Decomposition efficiency of glycitin family in roasted soy flour (pH4, heat treatment of enzyme no, reaction time 0 h): 56.6 | Decomposition efficiency of glycitin family in roasted soy flour (pH4, heat treatment of enzyme no, reaction time 1 h): not detected | Decomposition efficiency of glycitin family in roasted soy flour (pH4, heat treatment of enzyme no, reaction time 3 h): not detected | Decomposition efficiency of glycitin family in roasted soy flour (pH4, heat treatment of enzyme no, reaction time 6 h): not detected | Decomposition efficiency of glycitin family in roasted soy flour (pH4, heat treatment of enzyme yes, reaction time 6 h): 55.1 | Decomposition efficiency of glycitin family in soymilk (pH4.8, heat treatment of enzyme no, reaction time 0 h): 50.7 | Decomposition efficiency of glycitin family in soymilk (pH4.8, heat treatment of enzyme no, reaction time 1 h): not detected | Decomposition efficiency of glycitin family in soymilk (pH4.8, heat treatment of enzyme no, reaction time 3 h): not detected | Decomposition efficiency of glycitin family in soymilk (pH4.8, heat treatment of enzyme no, reaction time 6 h): not detected | Decomposition efficiency of glycitin family in soymilk (pH4.8, heat treatment of enzyme yes, reaction time 6 h): 54.3 | Decomposition efficiency of glycitin family in defatted soybean (pH4.8, heat treatment of enzyme: no, reaction time 0 h): not detected | Decomposition efficiency of glycitin family in defatted soybean (pH4.8, heat treatment of enzyme: no, reaction time 1 h): not detected | Decomposition efficiency of glycitin family in defatted soybean (pH4.8, heat treatment of enzyme: no, reaction time 3 h): not detected | Decomposition efficiency of glycitin family in defatted soybean (pH4.8, heat treatment of enzyme: no, reaction time 6 h): not detected | Decomposition efficiency of glycitin family in defatted soybean (pH4.8, heat treatment of enzyme: yes, reaction time 6 h): not detected | Decomposition efficiency of glycitin family in roasted soy flour (pH5, heat treatment of enzyme no, reaction time 0 h): 56.6 | Decomposition efficiency of glycitin family in roasted soy flour (pH5, heat treatment of enzyme no, reaction time 1 h): not detected | Decomposition efficiency of glycitin family in roasted soy flour (pH5, heat treatment of enzyme no, reaction time 3 h): not detected | Decomposition efficiency of glycitin family in roasted soy flour (pH5, heat treatment of enzyme no, reaction time 6 h): not detected | Decomposition efficiency of glycitin family in roasted soy flour (pH5, heat treatment of enzyme yes, reaction time 6 h): 55.4 | Decomposition efficiency of glycitin family in concentrated soybean protein (pH5.1, heat treatment of enzyme: no, reaction time 0 h): 52.4% | Decomposition efficiency of glycitin family in concentrated soybean protein (pH5.1, heat treatment of enzyme: no, reaction time 1 h): 4.1% | Decomposition efficiency of glycitin family in concentrated soybean protein (pH5.1, heat treatment of enzyme: no, reaction time 3 h): not detected | Decomposition efficiency of glycitin family in concentrated soybean protein (pH5.1, heat treatment of enzyme: no, reaction time 6 h): not detected | Decomposition efficiency of glycitin family in concentrated soybean protein (pH5.1, heat treatment of enzyme: yes, reaction time 6 h): 52.3% | Decomposition efficiency of glycitin family in defatted soybean (pH5.4, heat treatment of enzyme: no, reaction time 0 h): not detected | Decomposition efficiency of glycitin family in defatted soybean (pH5.4, heat treatment of enzyme: no, reaction time 1 h): not detected | Decomposition efficiency of glycitin family in defatted soybean (pH5.4, heat treatment of enzyme: no, reaction time 3 h): not detected | Decomposition efficiency of glycitin family in defatted soybean (pH5.4, heat treatment of enzyme: no, reaction time 6 h): not detected | Decomposition efficiency of glycitin family in defatted soybean (pH5.4, heat treatment of enzyme: yes, reaction time 6 h): not detected | Decomposition efficiency of glycitin family in soymilk (pH6.2, heat treatment of enzyme no, reaction time 0 h): 50.7 | Decomposition efficiency of glycitin family in soymilk (pH6.2, heat treatment of enzyme no, reaction time 1 h): not detected | Decomposition efficiency of glycitin family in soymilk (pH6.2, heat treatment of enzyme no, reaction time 3 h): not detected | Decomposition efficiency of glycitin family in soymilk (pH6.2, heat treatment of enzyme no, reaction time 6 h): not detected | Decomposition efficiency of glycitin family in soymilk (pH6.2, heat treatment of enzyme yes, reaction time 6 h): 54.2 | Decomposition efficiency of glycitin family in roasted soy flour (pH6.5, heat treatment of enzyme no, reaction time 0 h): 55.9 | Decomposition efficiency of glycitin family in roasted soy flour (pH6.5, heat treatment of enzyme no, reaction time 1 h): not detected | Decomposition efficiency of glycitin family in roasted soy flour (pH6.5, heat treatment of enzyme no, reaction time 3 h): not detected | Decomposition efficiency of glycitin family in roasted soy flour (pH6.5, heat treatment of enzyme no, reaction time 6 h): not detected | Decomposition efficiency of glycitin family in roasted soy flour (pH6.5, heat treatment of enzyme yes, reaction time 6 h): 54.8 | Decomposition efficiency of glycitin family in concentrated soybean protein [1]: 52.2% | Decomposition efficiency of glycitin family in defatted soybean [1]: not detected | Decomposition efficiency of glycitin family in concentrated soybean protein [2]: 22.6% | Decomposition efficiency of glycitin family in defatted soybean [2]: not detected | Decomposition efficiency of glycitin family in concentrated soybean protein [3]: 6.9% | Decomposition efficiency of glycitin family in defatted soybean [3]: not detected | Decomposition efficiency of glycitin family in concentrated soybean protein [4]: 2.0% | Decomposition efficiency of glycitin family in defatted soybean [4]: not detected | Decomposition efficiency of glycitin family in concentrated soybean protein [5]: 53.3% | Decomposition efficiency of glycitin family in defatted soybean [5]: not detected | Decomposition efficiency of glycitin family in soymilk (pH7.2, heat treatment of enzyme no, reaction time 0 h): 50.0 | Decomposition efficiency of glycitin family in soymilk (pH7.2, heat treatment of enzyme no, reaction time 1 h): not detected | Decomposition efficiency of glycitin family in soymilk (pH7.2, heat treatment of enzyme no, reaction time 3 h): not detected | Decomposition efficiency of glycitin family in soymilk (pH7.2, heat treatment of enzyme no, reaction time 6 h): not detected | Decomposition efficiency of glycitin family in soymilk (pH7.2, heat treatment of enzyme yes, reaction time 6 h): 56.9 | Decomposition efficiency of glycitin family in defatted soybean (pH7.8, heat treatment of enzyme: no, reaction time 0 h): not detected | Decomposition efficiency of glycitin family in defatted soybean (pH7.8, heat treatment of enzyme: no, reaction time 1 h): not detected | Decomposition efficiency of glycitin family in defatted soybean (pH7.8, heat treatment of enzyme: no, reaction time 3 h): not detected | Decomposition efficiency of glycitin family in defatted soybean (pH7.8, heat treatment of enzyme: no, reaction time 6 h): not detected | Decomposition efficiency of glycitin family in defatted soybean (pH7.8, heat treatment of enzyme: yes, reaction time 6 h): not detected | Decomposition efficiency of glycitin family in roasted soy flour (pH8.5, heat treatment of enzyme no, reaction time 0 h): 59.4 | Decomposition efficiency of glycitin family in roasted soy flour (pH8.5, heat treatment of enzyme no, reaction time 1 h): 39.4 | Decomposition efficiency of glycitin family in roasted soy flour (pH8.5, heat treatment of enzyme no, reaction time 3 h): 29.3 | Decomposition efficiency of glycitin family in roasted soy flour (pH8.5, heat treatment of enzyme no, reaction time 6 h): 22.4 | Decomposition efficiency of glycitin family in roasted soy flour (pH8.5, heat treatment of enzyme yes, reaction time 6 h): 59.2 | Decomposition efficiency of glycitin family in concentrated soybean protein (pH8.6, heat treatment of enzyme: no, reaction time 0 h): 54.9% | Decomposition efficiency of glycitin family in concentrated soybean protein (pH8.6, heat treatment of enzyme: no, reaction time 1 h): 51.6% | Decomposition efficiency of glycitin family in concentrated soybean protein (pH8.6, heat treatment of enzyme: no, reaction time 3 h): 45.9% | Decomposition efficiency of glycitin family in concentrated soybean protein (pH8.6, heat treatment of enzyme: no, reaction time 6 h): 36.7% | Decomposition efficiency of glycitin family in concentrated soybean protein (pH8.6, heat treatment of enzyme: yes, reaction time 6 h): 56.8% | Decomposition efficiency of glycitin family in soymilk (pH11.6, heat treatment of enzyme no, reaction time 0 h): 54.3 | Decomposition efficiency of glycitin family in soymilk (pH11.6, heat treatment of enzyme no, reaction time 1 h): not detected | Decomposition efficiency of glycitin family in soymilk (pH11.6, heat treatment of enzyme no, reaction time 3 h): not detected | Decomposition efficiency of glycitin family in soymilk (pH11.6, heat treatment of enzyme no, reaction time 6 h): not detected | Decomposition efficiency of glycitin family in soymilk (pH11.6, heat treatment of enzyme yes, reaction time 6 h): 59.7
